Test results reported in paper PMC11995724, “Antibiotic target discovery by integrated phenotypic and activity-based profiling of electrophilic fragments” (Cell chemical biology, 2025).
Counter-ions that a name gives are not always drawn.

Assay: in vitro
Details: human, hek293t cells

Going from `O=C(CCl)N(Cc1ccc2c(c1)CCO2)C1CCCC1` [6-L11, 2-chloro-N-cyclopentyl-N-[(2,3-dihydro-1-benzofuran-5-yl)methyl]acetamide] to `O=C(CCl)Nc1ccc(CN2CCCCC2)cc1` [6-M04, 2-chloro-N-{4-[(piperidin-1-yl)methyl]phenyl}acetamide hydrochloride], the viability at 48 h, 25 µM falls from 0.358% to 0.0889%.

First: COc1cc(S(=O)(=O)N2CCOCC2)ccc1NC(=O)CCl [6-L12, 2-chloro-N-[2-methoxy-4-(morpholine-4-sulfonyl)phenyl]acetamide]
Second: CC(Cl)C(=O)Nc1ccc(S(=O)(=O)N2CCCC2)cc1 (stereo not shown) [6-M13, 2-chloro-N-[4-(pyrrolidine-1-sulfonyl)phenyl]propanamide]
The viability at 48 h, 25 µM of the first is lower: 0.942% for the first, 117% for the second.

First: CC(Cl)C(=O)N1C2CCC1CC(N(C)C(=O)c1ccccc1)C2 (stereo not shown) [6-L14, N-[8-(2-chloropropanoyl)-8-azabicyclo[3.2.1]octan-3-yl]-N-methylbenzamide]
Second: CC(Cl)C(=O)NC1CC(C)N(c2ccccc2)C1 (stereo not shown) [6-L15, 2-chloro-N-(5-methyl-1-phenylpyrrolidin-3-yl)propanamide]
The viability at 48 h, 25 µM of the first is higher: 101% for the first, 99.3% for the second.

Going from `CC(Cl)C(=O)N(C)C1CCCc2c1cnn2C` (stereo not shown) [6-L16, 2-chloro-N-methyl-N-(1-methyl-4,5,6,7-tetrahydro-1H-indazol-4-yl)propanamide] to `CCn1cc(CN(C)C(=O)C(C)Cl)nn1` (stereo not shown) [6-L22, 2-chloro-N-[(1-ethyl-1H-1,2,3-triazol-4-yl)methyl]-N-methylpropanamide], the viability at 48 h, 25 µM falls from 112% to 94.7%.

`CC(Cl)C(=O)N(C(C)CS(C)(=O)=O)C1CC1` (stereo not shown) [6-L17, 2-chloro-N-cyclopropyl-N-(1-methanesulfonylpropan-2-yl)propanamide] and `CC1CN(c2cccc(CN(C)C(=O)C(C)Cl)c2)S(=O)(=O)C1` (stereo not shown) [6-L18, 2-chloro-N-methyl-N-{[3-(4-methyl-1,1-dioxo-1lambda6,2-thiazolidin-2-yl)phenyl]methyl}propanamide] are the same in viability at 48 h, 25 µM: 112% for the first, 112% for the second.

Compared with `COCC(NC(=O)C(C)Cl)c1cccc(C#N)c1` (stereo not shown) [6-L19, 2-chloro-N-[1-(3-cyanophenyl)-2-methoxyethyl]propanamide], `CCOc1ccccc1NC(=O)C(C)Cl` (stereo not shown) [6-M10, 2-chloro-N-(2-ethoxyphenyl)propanamide] is lower in viability at 48 h, 25 µM: 107% for the first, 93.2% for the second.

Compared with `CC(Cl)C(=O)NC1CS(=O)(=O)Cc2ccccc21` (stereo not shown) [6-L20, 2-chloro-N-(2,2-dioxo-3,4-dihydro-1H-2lambda6-benzothiopyran-4-yl)propanamide], `CC(Cl)C(=O)N1CCC(n2c(=O)[nH]c3ccccc32)CC1` (stereo not shown) [6-N05, 1-[1-(2-chloropropanoyl)piperidin-4-yl]-2,3-dihydro-1H-1,3-benzodiazol-2-one] is higher in viability at 48 h, 25 µM: 93.5% for the first, 109% for the second.

First: CC(Cl)C(=O)NC(c1cccs1)c1cccs1 (stereo not shown) [6-L21, N-[bis(thiophen-2-yl)methyl]-2-chloropropanamide]
Second: CC(c1cccs1)N(C)C(=O)CCl (stereo not shown) [6-M21, 2-chloro-N-methyl-N-[1-(thiophen-2-yl)ethyl]acetamide]
The viability at 48 h, 25 µM of the first is higher: 100% for the first, 0.384% for the second.

Going from `COc1ccc(C2CCCN2C(=O)CCl)cc1OC` (stereo not shown) [6-M03, 2-chloro-1-[2-(3,4-dimethoxyphenyl)pyrrolidin-1-yl]ethan-1-one] to `O=C(CCl)N1CCCC1c1ccccc1` (stereo not shown) [6-M19, 2-chloro-1-(2-phenylpyrrolidin-1-yl)ethan-1-one], the viability at 48 h, 25 µM rises from 0.75% to 0.923%.

First: CN(CC(=O)Nc1c(Cl)cccc1Cl)C(=O)CCl [6-M05, 2-chloro-N-{[(2,6-dichlorophenyl)carbamoyl]methyl}-N-methylacetamide]
Second: Cc1ccc(C)c(NC(=O)CN(C)C(=O)CCl)c1 [6-N04, 2-chloro-N-{[(2,5-dimethylphenyl)carbamoyl]methyl}-N-methylacetamide]
The viability at 48 h, 25 µM of the first is higher: 2.21% for the first, 0.906% for the second.

Going from `CNC(=O)C(NC(=O)CCl)c1ccccc1` (stereo not shown) [6-M06, 2-(2-chloroacetamido)-N-methyl-2-phenylacetamide] to `O=C(CCl)NC(c1ccccc1)c1ccccc1` [6-M12, 2-chloro-N-(diphenylmethyl)acetamide], the viability at 48 h, 25 µM rises from 0.807% to 0.81%.

First: CNS(=O)(=O)c1cc(NC(=O)CCl)ccc1C [6-M07, 2-chloro-N-[4-methyl-3-(methylsulfamoyl)phenyl]acetamide]
Second: CCN(CC)c1ccc(NC(=O)CCl)cc1 [6-N10, 2-chloro-N-[4-(diethylamino)phenyl]acetamide]
The viability at 48 h, 25 µM of the first is lower: 0.859% for the first, 2.56% for the second.

Going from `O=C(CCl)NC1CCS(=O)(=O)CC1` [6-M08, 2-chloro-N-(1,1-dioxo-1lambda6-thian-4-yl)acetamide] to `O=C(CCl)NC1CCN(C(=O)CCc2ccccc2)CC1` [6-N08, 2-chloro-N-[1-(3-phenylpropanoyl)piperidin-4-yl]acetamide], the viability at 48 h, 25 µM falls from 53.7% to 1.6%.

Going from `COc1cc(C)c(C(C)NC(=O)CCl)cc1OC` (stereo not shown) [6-M09, 2-chloro-N-[1-(4,5-dimethoxy-2-methylphenyl)ethyl]acetamide] to `O=C(CCl)Nc1ccc2oc3ccccc3c2c1` [6-N06, 2-chloro-N-{8-oxatricyclo[7.4.0.0,2,7]trideca-1(9),2(7),3,5,10,12-hexaen-4-yl}acetamide], the viability at 48 h, 25 µM falls from 3.89% to 2.09%.

Compared with `CCN(Cc1ccc(Cl)s1)C(=O)CCl` [6-M11, 2-chloro-N-[(5-chlorothiophen-2-yl)methyl]-N-ethylacetamide], `COc1ccc(CN(C)C(=O)CCl)cc1` [6-M15, 2-chloro-N-[(4-methoxyphenyl)methyl]-N-methylacetamide] is higher in viability at 48 h, 25 µM: 0.655% for the first, 0.805% for the second.

Compared with `NC(=O)c1cc(-c2ccccc2)sc1NC(=O)CCl` [6-M14, 2-(2-chloroacetamido)-5-phenylthiophene-3-carboxamide], `CC(c1cccc(NC(=O)c2ccccc2)c1)N(C)C(=O)CCl` (stereo not shown) [6-M22, N-{3-[1-(2-chloro-N-methylacetamido)ethyl]phenyl}benzamide] is lower in viability at 48 h, 25 µM: 0.446% for the first, 0.237% for the second.

Compared with `O=C(CCl)NCCc1ccc(Cl)cc1Cl` [6-M16, 2-chloro-N-[2-(2,4-dichlorophenyl)ethyl]acetamide], `CCc1nc2cc(CNC(=O)C(C)Cl)ccc2n1C1CC1` (stereo not shown) [6-N09, 2-chloro-N-[(1-cyclopropyl-2-ethyl-1H-1,3-benzodiazol-5-yl)methyl]propanamide] is higher in viability at 48 h, 25 µM: 1.06% for the first, 102% for the second.

First: O=CN1CCN(C(=O)CCl)CC1 [6-M17, 4-(2-chloroacetyl)piperazine-1-carbaldehyde]
Second: O=C(CCl)N1CC2CCC(C1)O2 [6-M20, 2-chloro-1-{8-oxa-3-azabicyclo[3.2.1]octan-3-yl}ethan-1-one]
The viability at 48 h, 25 µM of the first is higher: 2.22% for the first, 1.12% for the second.

First: CC(Cl)C(=O)N(CCC#N)c1ccccc1 (stereo not shown) [6-M18, 2-chloro-N-(2-cyanoethyl)-N-phenylpropanamide]
Second: CC(Cl)C(=O)N1CCC(Cc2ccncc2)C1 (stereo not shown) [6-N11, 2-chloro-1-{3-[(pyridin-4-yl)methyl]pyrrolidin-1-yl}propan-1-one]
The viability at 48 h, 25 µM of the first is lower: 105% for the first, 106% for the second.

First: Cc1cc(C=C2CCN(C(=O)C(C)Cl)CC2)no1 (stereo not shown) [6-N03, 2-chloro-1-{4-[(5-methyl-1,2-oxazol-3-yl)methylidene]piperidin-1-yl}propan-1-one]
Second: CC(Cl)C(=O)N1CCOC(c2ccc(Cl)s2)C1 (stereo not shown) [6-N07, 2-chloro-1-[2-(5-chlorothiophen-2-yl)morpholin-4-yl]propan-1-one]
The viability at 48 h, 25 µM of the first is lower: 104% for the first, 111% for the second.
